Assay results reported in US20220324909A1, “THERAPEUTIC PEPTIDES” (COHBAR, INC., priority 2019, published 2022).
Non-standard residues stand in square brackets, D forms with d. No end group written: not given here.

Experiments:
[1] = system: 3T3-L1 mouse adipocytes; test: Free fatty acid levels in cultured 3T3-L1 mouse adipocytes and insulin dependence (Example 17); type: cell-based; settings: isoproterenol 0.1 nM; for Free Fatty Acid Levels, Percent of Isoproterenol Control Activity No Insulin: peptide 10 μM alone, relative to isoproterenol treated cells; for Free Fatty Acid Levels, Percent of Isoproterenol Control Activity With Insulin: peptide 10 μM with 0.25 nM insulin, relative to 0.25 nM insulin treated cells
Description: The effect of the peptides on fatty acid metabolism can be assessed using an assay to monitor free fatty acid levels produced by cultured cells such as mouse adipocytes. […] Following 3 h incubation, conditioned medium from each well was transferred to a fresh 96-well plate. […] Absorbance values were expressed as percent control activity relative to 0.1 nM isoproterenol treated cells (no insulin) for 10 μM peptide alone or 0.25 nM insulin treated cells (with insulin) for 10 μM peptide in presence of 0.25 nM insulin. […] Data are presented as averages values from 2-3 independent experiments with each data point performed in triplicate.

[2] = system: C2C12 cells; test: Glucose utilization in cultured C2C12 cells and insulin dependence; type: cell-based, mouse; settings: 22 h; for Glucose Utilization, Percent of Control Activity No Insulin: peptide 10 μM alone, glucose in medium relative to untreated cells; for Glucose Utilization, Percent of Control Activity With Insulin: peptide 10 μM with 5-20 nM insulin, glucose in medium relative to insulin treated cells
Excerpt: The effect of the peptides on glucose homeostasis can be assessed using an assay to monitor glucose utilization by cultured cells such as mouse myotubes. […] C2C12 mouse muscle cell line was purchased from Millipore Sigma (Saint Louis, Mo.). […] Three days after plating the medium was removed and with Differentiation Medium (DMEM/low glucose (1 g/L)+2% Horse Serum+antibiotics) added. […] After 5 days of differentiation, the medium was removed from myotube cultures and replaced with Assay Medium (DMEM/low glucose (1 g/L)+antibiotics). […] Following the 5 h incubation the medium was removed and fresh Assay Medium containing compounds added; 10 μM peptide in absence or presence of 5-20 nM insulin, or 1 mM metformin as a potent stimulator of glucose utilization. […] Following 22 h incubation, conditioned medium from each well was transferred to a fresh 96-well plate. Glucose concentrations in the medium were determined using a Glucose Assay kit (Abcam; Cambridge, Mass.) according to the manufacturer's instructions; absorbance measured using a Cytation 3 plate reader at 570 nm (BioTek, Winooski, Vt.). Absorbance values were expressed as percent control activity relative to untreated treated cells (no insulin) for 10 μM peptide alone or 5-20 nM insulin treated cells (with insulin) for 10 μM peptide in presence of 5-20 nM insulin. Untreated cells were used as reference for basal glucose utilization. The relative standard deviation from plate to plate of untreated control was <10%. Metformin at 1 mM was used as a potent control for increasing glucose utilization. Glucose levels for metformin (1 mM) treatment were <10% of the untreated control value. Data are presented as averages values from 2-3 independent experiments with each data point performed in triplicate.

[3] = system: H4-IIE cells; test: Glucose production in cultured H4-IIE cells and insulin dependence; type: cell-based, rat; settings: 24 h; for Glucose Production, Percent of Control Activity No Insulin: peptide 10 μM alone, relative to untreated cells; for Glucose Production, Percent of Control Activity With Insulin: peptide 10 μM with 800 μM insulin, relative to insulin treated cells
Description: The effect of the peptides on glucose homeostasis can be assessed using an assay to monitor glucose production by cultured cells such as rat hepatocytes. […] Following 24 h incubation, conditioned medium from each well was transferred to a fresh 96-well plate. Glucose concentrations in the medium were determined using a Glucose Assay kit (Abcam; Cambridge, Mass.) according to the manufacturer's instructions; absorbance measured using a Cytation 3 plate reader at 570 nm (BioTek, Winooski, Vt.). […] Untreated cells were used as reference for maximal glucose production. […] Insulin at 800 μM was used as a modest inhibitor glucose production. […] Data are presented as averages values from 2-4 independent experiments with each data point performed in triplicate.

Substance	Free Fatty Acid Levels, Percent of Isoproterenol Control Activity No Insulin [1]	Free Fatty Acid Levels, Percent of Isoproterenol Control Activity With Insulin [1]	Glucose Utilization, Percent of Control Activity No Insulin [2]	Glucose Utilization, Percent of Control Activity With Insulin [2]	Glucose Production, Percent of Control Activity No Insulin [3]	Glucose Production, Percent of Control Activity With Insulin [3]
22 (RRMVYQCLCG[dA]; cysteine pairing not given here) [compound 22]	107%	61.9%	100.9%	79.8%	109.8%	49.1%
23 (RRMVFQCLEG[dA]) [compound 23]	104%	57.7%	102%	86.6%	104.3%	57.7%
24 (RRMVYQCLEG[dA]) [compound 24]	108%	59.2%	98.8%	85.8%	107.6%	61.9%
25 (RREMVYQCLCG[dA]; cysteine pairing not given here) [compound 25]	110%	67.4%	99.9%	77.4%	108.2%	65.2%
26 (RREMVYQCLEG[dA]) [compound 26]	104%	52.8%	102.2%	98.4%	111.5%	103.1%
27 (RRMAYQCLEG[dA]) [compound 27]	108%	74.2%	101.2%	106.2%	101.7%	98.9%
